The source of these data is patent publication US5621133A (priority 1995, dated 1997).

pEC50, pKi: −log10 of the molar value. Where a name gives a salt, the structure may show the parent alone. Read-outs that look alike come from different tables or passages of the source. Where only a bound is given, the exact number is not on record here.

By pEC50 is commonly meant −log10 of the EC50, conventionally taken in molar units. As a reminder, the pKi is the negative decadic logarithm of the Ki, by convention in mol/L.

Assay [1] has as its system dopamine D-1 receptor. The following applies: for Intrinsic Activity (adenylate cyclase assay): dopamine = 100, goldfish retina or rat striatum; for pEC50: read-out: EC50 (agonist activity in adenylate cyclase assay), tissue from goldfish retina or rat striatum.
Experimental: In order to determine agonist activity, cell-free tissue homogenates are incubated in an ionic buffer solution containing ATP and the compound being evaluated. The tissue was obtained from either goldfish retina or rat striatum.
Assay [2] addresses T1, dopamine D-1 receptor (Rattus norvegicus, UniProt P18901). The following applies: read-out: D-1 Ki; rat caudate, [125I]SCH-23982.
Text: (§1) The compounds compete with the radiolabeled ligand for occupancy of the receptors and the molar potency of each compound was quantified.
(§2) The Ki values are inversely proportional to the affinity of the compound for the receptor.
In a further assay the target is dopamine D-2 receptor (Rattus norvegicus, UniProt P61169). As to the kind of experiment: biochemical. The format is binding. The following applies: rat caudate, [125I]-p-aminophenylethyl spiroperidol; read-out: D-2 Ki. The procedure:
Homogenized rat caudate was the source of the D-2 receptors. […] The molar affinity of the compound for the receptor binding site was calculated by the same method used for the D-1 receptor assay, assuming a competitive interaction between the compound and the radiolabeled ligand.

Assay [3] has as its system striatal dopamine receptors. As to the kind of experiment: Rotation behavior assay of in vivo activity (6-hydroxydopamine lesioned rat rotational model). The following applies: for ED50 s.c. (rotation behavior): injected subcutaneously.
The target in assay [4] is T1, dopamine D-1 receptor. As to the kind of experiment: biochemical. Conditions: D-1 Ki, rat caudate, [125I]SCH-23982.
Text: as §1, §2

Chain of dopamine D-2 receptor (P61169 whole entry): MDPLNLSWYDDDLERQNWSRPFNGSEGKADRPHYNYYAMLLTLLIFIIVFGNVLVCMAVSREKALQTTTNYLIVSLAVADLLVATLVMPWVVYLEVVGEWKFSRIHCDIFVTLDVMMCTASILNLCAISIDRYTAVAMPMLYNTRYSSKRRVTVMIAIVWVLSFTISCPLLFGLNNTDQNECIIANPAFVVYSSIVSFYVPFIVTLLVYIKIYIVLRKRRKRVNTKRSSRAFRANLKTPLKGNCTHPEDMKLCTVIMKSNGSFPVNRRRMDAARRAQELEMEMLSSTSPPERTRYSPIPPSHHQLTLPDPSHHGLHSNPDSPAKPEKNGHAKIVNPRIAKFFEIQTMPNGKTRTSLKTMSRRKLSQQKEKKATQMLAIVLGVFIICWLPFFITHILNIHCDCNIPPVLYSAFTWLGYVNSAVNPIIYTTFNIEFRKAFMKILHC
T1 sequence (P18901 whole entry): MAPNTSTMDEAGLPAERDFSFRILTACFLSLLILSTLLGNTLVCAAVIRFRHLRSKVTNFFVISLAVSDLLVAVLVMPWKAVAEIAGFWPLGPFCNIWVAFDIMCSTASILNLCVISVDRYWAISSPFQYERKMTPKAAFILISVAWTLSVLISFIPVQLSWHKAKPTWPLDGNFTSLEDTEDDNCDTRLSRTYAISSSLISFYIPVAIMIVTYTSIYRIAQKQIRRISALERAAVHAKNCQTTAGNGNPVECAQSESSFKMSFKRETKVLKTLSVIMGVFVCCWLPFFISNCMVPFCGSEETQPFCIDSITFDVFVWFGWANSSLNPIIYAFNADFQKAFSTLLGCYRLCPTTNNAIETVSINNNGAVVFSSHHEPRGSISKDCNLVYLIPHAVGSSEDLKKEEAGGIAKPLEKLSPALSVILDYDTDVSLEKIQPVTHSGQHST

Take `CCNCC1=CC(c2ccccc2)Cc2c1ccc(O)c2O` (stereo not drawn) [Example 153]: in the assay on dopamine D-1 receptor [1], the “Intrinsic Activity (adenylate cyclase assay)” value (shortened to “Intrinsic Activity”) came to 53 and the pEC50 was 5.51. In addition, the pKi at dopamine D-1 receptor [2] was 6.07. The negative logarithm of the Ki (pKi) at dopamine D-2 receptor was below 5.00.
On to `CN1CCC2=C(C1)c1ccc(O)c(O)c1CC2c1ccccc1` (stereo not drawn) [Example 247], for which, in the assay on dopamine D-1 receptor [1], the “Intrinsic Activity” value is given as 75 and the negative-log EC50 (pEC50) is 7.52. Besides, at dopamine D-1 receptor [2], the pKi is 7.70. In addition, in assay [3], the “ED50 s.c. (rotation behavior)” value was 0.014 µmol/kg. Besides, at dopamine D-2 receptor, the pKi was 5.74.
On to `NC[C@@H]1C[C@H](C23CC4CC(CC(C4)C2)C3)Cc2c1ccc(O)c2O` (relative stereo) [Example 235], for which, in the assay on dopamine D-1 receptor [1], the “Intrinsic Activity” value is 83 and the negative logarithm of the EC50 (pEC50) is 6.52. In addition, the pKi at dopamine D-1 receptor [2] is 6.26. Moreover, the pKi on dopamine D-2 receptor was below 5.00.
As to `CN1CCC2=C(C1)c1ccc(O)c(O)c1CC2c1ccccc1` (stereo not drawn) [Example 246], in the assay with dopamine D-1 receptor [1], the “Intrinsic Activity” value amounted to 78 and the pEC50 was 6.66. Moreover, the pKi at dopamine D-1 receptor [2] is 6.72. In assay [3], the “ED50 s.c. (rotation behavior)” value is on record as 0.54 µmol/kg. For the same molecule, the pKi on dopamine D-2 receptor is 5.49.
For `CCCN(CCC)CC1=CC(c2ccccc2)Cc2c1ccc(O)c2O` (stereo not drawn) [Example 152], the negative-log Ki (pKi) at dopamine D-1 receptor [2] is 4.23; on dopamine D-2 receptor, 4.92.
As for `NC[C@@H]1O[C@H](CCOCc2ccccc2)Cc2c1ccc(O)c2O` (relative stereo) [Example 77], in the assay on dopamine D-1 receptor [1], the “Intrinsic Activity” value came out at 107 and the negative-log EC50 (pEC50) is 7.03. Besides, the pKi on dopamine D-1 receptor [2] was 5.64. For the same molecule, the negative-log Ki (pKi) on dopamine D-2 receptor was 6.30.
On to `CCC1Cc2c(ccc(O)c2O)C(CN)O1` (stereo not drawn) [Example 67], for which, in the assay with dopamine D-1 receptor [1], the “Intrinsic Activity” value is on record as 92 and the pEC50 is 6.64. Moreover, the pKi on dopamine D-1 receptor [2] was 5.72.
With `NCC1c2ccc(O)c(O)c2CC(c2ccccc2)C1CCO` (stereo not drawn) [Example 45, [1,2-trans]1-Aminomethyl-5,6-dihydroxy-2-(2'-hydroxy-1'-ethyl)-3-phenyl-1,2,3,4-tetrahydronaphthalene Formic Acid Salt], in the assay with dopamine D-1 receptor [1], the “Intrinsic Activity” value amounted to 62 and the pEC50 is 7.22. The negative-log Ki (pKi) at dopamine D-1 receptor [2] is 5.34. Also, at dopamine D-2 receptor, the pKi was below 5.00.
Regarding `CCCCCC(NC(C)=O)[C@@H]1Cc2c(ccc(O)c2O)[C@H](CN)O1` (relative stereo) [Example 162], in the assay on dopamine D-1 receptor [1], the “Intrinsic Activity” value came out at 107 and the pEC50 was 6.16. Further, the pKi at dopamine D-1 receptor [2] is 6.17. In addition, on dopamine D-2 receptor, the pKi was 6.15.
In the same order, the values of `CCCCCC(NC(=O)CCl)[C@@H]1Cc2c(ccc(O)c2O)[C@H](CN)O1` (relative stereo) [Example 165] are 105, 7.51, 5.74 and 4.77.
For `CCCCCC(NC(C)=O)[C@@H]1Cc2c(ccc(O)c2O)[C@H](CN)O1` (relative stereo) [Example 163] the same measures were 140, 5.84, 6.10 and 6.08.
In the same order, the values of `Oc1ccc2c(c1O)C[C@H](c1ccccc1)C[C@H]2[C@H]1CCCN1` (relative stereo) [Example 181, [1,3-cis]5.6-Dihydroxy-3-phenyl-1-(2'-pyrrolidinyl)-1,2,3,4-tetrahydronaph-thalene Hydrobromide] are 65, 7.77, 6.41 and 5.34.
On to `C[C@H](N)C1OC(c2ccccc2)Cc2c1ccc(O)c2O` (stereo partly drawn) [Example 108, [1,3-cis]1-(1S-(1-Amino)ethyl)-5,6-dihydroxy-3-phenyl-3,4-dihydro-1H-2-benzopyran], for which the negative logarithm of the Ki (pKi) on dopamine D-1 receptor [2] is 5.39; on dopamine D-2 receptor it was below 5.00.
As to `C=CCNC[C@@H]1O[C@H](c2ccccc2)Cc2c1ccc(O)c2O` (stereo in doubt) [Example 130], in the assay on dopamine D-1 receptor [1], the “Intrinsic Activity” value came out at 82 and the negative logarithm of the EC50 (pEC50) is 6.77. For the same molecule, on dopamine D-1 receptor [2], the pKi was 7.29. In addition, in assay [3], the “ED50 s.c. (rotation behavior)” value was determined as 0.13 µmol/kg and the “ED50 oral (rotation behavior)” value is given as 8 µmol/kg. For the same molecule, at dopamine D-2 receptor, the pKi is 6.72.
For `CCCNCC1=CC(c2ccccc2)Cc2c1ccc(O)c2O` (stereo not drawn) [Example 151], in the assay on dopamine D-1 receptor [1], the “Intrinsic Activity” value was 58 and the pEC50 was 5.15. Further, the pKi at dopamine D-1 receptor [2] was 5.24. Moreover, the pKi at dopamine D-2 receptor is 5.60.
For `CC(C)OC(=O)CCC(=O)Oc1ccc2c(c1OC(=O)CCC(=O)OC(C)C)CC(c1ccccc1)C=C2CN` (stereo not drawn) [Example 24] the same measures were 71, 6.30, 6.05 and below 5.00.
With `CN(C)CC1OC(CC(C)(C)C)Cc2c1ccc(O)c2O` (stereo not drawn) [Example 220], the “Intrinsic Activity” value in the assay on dopamine D-1 receptor [1] was determined as 72. At dopamine D-1 receptor [1], the negative-log EC50 (pEC50) is 6.40. The “ED50 s.c. (rotation behavior)” value in assay [3] was 0.52 µmol/kg. Further, the pKi is 5.51 on dopamine D-2 receptor and 6.39 on dopamine D-1 receptor [4].
In the same order, the values of `CC1([C@@H]2Cc3c(ccc(O)c3O)[C@H](CN)O2)CCCCC1` (relative stereo) [Example 222] are 87, 7.40, 0.3 µmol/kg, 5.49 and 8.00.
For `NCC1=CC(C23CC4CC(CC(C4)C2)C3)Cc2c1ccc(O)c2O` (stereo not drawn) [Example 231] the same measures were 85, 7.05, above 3 µmol/kg, below 5.00 and 6.52.
For `CNCC1OC(CC2CCCC2)Cc2c1ccc(O)c2O` (stereo not drawn) [Example 218], in the assay on dopamine D-1 receptor [1], the “Intrinsic Activity” value came out at 115 and the pEC50 was 8.00. Besides, the “ED50 s.c. (rotation behavior)” value in assay [3] came to 0.93 µmol/kg. In addition, the negative-log Ki (pKi) on dopamine D-2 receptor is 6.39. On dopamine D-1 receptor [4], this molecule showed a negative-log Ki (pKi) of 7.70.
`Oc1ccc2c(c1O)CC1(CCCCC1)C1=C2CNCC1` [Example 205]: in the assay on dopamine D-1 receptor [1], the “Intrinsic Activity” value is reported as 100 and the negative logarithm of the EC50 (pEC50) is 7.17. Further, the “ED50 s.c. (rotation behavior)” value in assay [3] amounted to 3.4 µmol/kg. For the same molecule, the pKi at dopamine D-2 receptor was 5.82. Also, the pKi on dopamine D-1 receptor [4] is 6.68.
As for `Oc1ccc2c(c1O)CC1(CCCC1)C1=C2CNCC1` [Example 204], in the assay on dopamine D-1 receptor [1], the “Intrinsic Activity” value was 110 and the pEC50 was 7.32. In assay [3], the “ED50 s.c. (rotation behavior)” value turned out to be 1.1 µmol/kg and the “ED50 oral (rotation behavior)” value is 18 µmol/kg. Also, the pKi on dopamine D-2 receptor was 5.82. Also, at dopamine D-1 receptor [4], the pKi is 6.80.
On to `CN(C)C[C@@H]1O[C@H](c2ccccc2)Cc2c1ccc(O)c2O` (relative stereo) [Example 227], for which, in the assay on dopamine D-1 receptor [1], the “Intrinsic Activity” value worked out at 94 and the negative-log EC50 (pEC50) was 6.43. For the same molecule, the “ED50 s.c. (rotation behavior)” value in assay [3] is given as 0.045 µmol/kg. The pKi on dopamine D-2 receptor is below 5.00. This molecule gave a pKi on dopamine D-1 receptor [4] of 7.70.
Regarding `CC(C)(C)CC1Cc2c(ccc(O)c2O)C(CN)O1.Cl` (stereo not drawn) [Example 214, 1-Aminomethyl-3-(2,2-dimethylpropyl)-3,4-dihydro-5,6-dihydroxy-1H-2-benzopyran Hydrochloride], in the assay with dopamine D-1 receptor [1], the “Intrinsic Activity” value turned out to be 106 and the negative logarithm of the EC50 (pEC50) is 7.70. In addition, the “ED50 s.c. (rotation behavior)” value in assay [3] was 0.085 µmol/kg. At dopamine D-2 receptor, the negative-log Ki (pKi) was 5.28. The molecule further had a pKi at dopamine D-1 receptor [4] of 7.70.
For the molecule `CN1CCC2=C(C1)c1ccc(O)c(O)c1CC21CCCCCC1` [Example 249], in the assay on dopamine D-1 receptor [1], the “Intrinsic Activity” value stood at 32. The pEC50 at dopamine D-1 receptor [1] is 6.70. Moreover, the “ED50 s.c. (rotation behavior)” value in assay [3] was 0.12 µmol/kg. Besides, the pKi was 6.22 on dopamine D-2 receptor and 7.30 on dopamine D-1 receptor [4].
For `C=CCNC[C@H]1O[C@@H](c2ccccc2)Cc2c1ccc(O)c2O` (stereo in doubt) [Example 126], in the assay with dopamine D-1 receptor [1], the “Intrinsic Activity” value was 94 and the negative logarithm of the EC50 (pEC50) is 7.34. Further, in assay [3], the “ED50 s.c. (rotation behavior)” value worked out at 0.16 µmol/kg and the “ED50 oral (rotation behavior)” value amounted to 28 µmol/kg. The pKi on dopamine D-2 receptor is 5.18. The pKi on dopamine D-1 receptor [4] was 6.80.
Regarding `NC[C@@H]1O[C@H](C2(c3ccccc3)CCCCC2)Cc2c1ccc(O)c2O` (relative stereo) [Example 223], in the assay with dopamine D-1 receptor [1], the “Intrinsic Activity” value is 52 and the pEC50 was 7.15. Besides, the “ED50 s.c. (rotation behavior)” value in assay [3] is recorded as above 3 µmol/kg. For the same molecule, on dopamine D-2 receptor, the negative logarithm of the Ki (pKi) is 5.57. In addition, on dopamine D-1 receptor [4], the negative-log Ki (pKi) is 7.40.
